Laboratory results taken from the kinase profiling compilation of Christmann-Franck et al. (2016).

How the values were obtained:
Assay in all cases: KINOMEscan competition binding
Settings in all cases: compound 10.0 µM
[1] = molecular target: DAPK2 (human) (UniProt Q9UIK4)
[2] = molecular target: MAP3K11 (human) (UniProt Q16584)
[3] = molecular target: INSRR (human) (UniProt P14616)
[4] = molecular target: AXL (human) (UniProt P30530)
[5] = molecular target: ERBB4 (human) (UniProt Q15303)
[6] = molecular target: LYN (human) (UniProt P07948)
[7] = molecular target: FGFR3 (human) (UniProt P22607)
[8] = molecular target: EPHB2 (human) (UniProt P29323)
[9] = molecular target: CDK7 (human) (UniProt P50613)
[10] = molecular target: PRKAA1 (human) (UniProt Q13131)
[11] = molecular target: ERBB2 (human) (UniProt P04626)
[12] = molecular target: CSNK1G1 (human) (UniProt Q9HCP0)
[13] = molecular target: MAPK11 (human) (UniProt Q15759)
Chain of MAPK11 (human) (Q15759 whole entry, looked up): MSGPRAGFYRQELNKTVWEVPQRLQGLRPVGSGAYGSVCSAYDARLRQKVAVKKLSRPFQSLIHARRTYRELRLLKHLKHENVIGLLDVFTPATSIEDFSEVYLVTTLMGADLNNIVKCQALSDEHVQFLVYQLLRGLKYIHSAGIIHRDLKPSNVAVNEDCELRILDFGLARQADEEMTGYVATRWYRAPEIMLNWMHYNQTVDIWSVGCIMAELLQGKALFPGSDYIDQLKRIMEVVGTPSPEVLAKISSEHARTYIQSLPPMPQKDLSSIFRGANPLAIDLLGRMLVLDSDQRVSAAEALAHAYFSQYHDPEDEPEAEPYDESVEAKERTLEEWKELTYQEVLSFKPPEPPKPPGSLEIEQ

[14] = molecular target: CSNK1E (human) (UniProt P49674)
Chain of CSNK1E (human) (P49674 whole entry, looked up): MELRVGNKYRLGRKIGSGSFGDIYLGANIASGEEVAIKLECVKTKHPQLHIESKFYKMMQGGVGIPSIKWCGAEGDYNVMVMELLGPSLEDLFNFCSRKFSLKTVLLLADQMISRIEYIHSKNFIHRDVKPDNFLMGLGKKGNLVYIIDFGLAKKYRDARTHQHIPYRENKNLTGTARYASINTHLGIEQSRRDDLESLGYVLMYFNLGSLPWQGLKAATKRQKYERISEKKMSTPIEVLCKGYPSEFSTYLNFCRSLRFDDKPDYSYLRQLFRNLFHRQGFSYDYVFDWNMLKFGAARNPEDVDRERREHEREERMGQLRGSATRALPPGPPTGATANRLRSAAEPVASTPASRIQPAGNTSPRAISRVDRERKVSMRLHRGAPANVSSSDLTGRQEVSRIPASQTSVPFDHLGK

[15] = molecular target: CDC42BPA (human) (UniProt Q5VT25)
[16] = molecular target: EPHA8 (human) (UniProt P29322)
Chain of EPHA8 (human) (P29322 whole entry, looked up): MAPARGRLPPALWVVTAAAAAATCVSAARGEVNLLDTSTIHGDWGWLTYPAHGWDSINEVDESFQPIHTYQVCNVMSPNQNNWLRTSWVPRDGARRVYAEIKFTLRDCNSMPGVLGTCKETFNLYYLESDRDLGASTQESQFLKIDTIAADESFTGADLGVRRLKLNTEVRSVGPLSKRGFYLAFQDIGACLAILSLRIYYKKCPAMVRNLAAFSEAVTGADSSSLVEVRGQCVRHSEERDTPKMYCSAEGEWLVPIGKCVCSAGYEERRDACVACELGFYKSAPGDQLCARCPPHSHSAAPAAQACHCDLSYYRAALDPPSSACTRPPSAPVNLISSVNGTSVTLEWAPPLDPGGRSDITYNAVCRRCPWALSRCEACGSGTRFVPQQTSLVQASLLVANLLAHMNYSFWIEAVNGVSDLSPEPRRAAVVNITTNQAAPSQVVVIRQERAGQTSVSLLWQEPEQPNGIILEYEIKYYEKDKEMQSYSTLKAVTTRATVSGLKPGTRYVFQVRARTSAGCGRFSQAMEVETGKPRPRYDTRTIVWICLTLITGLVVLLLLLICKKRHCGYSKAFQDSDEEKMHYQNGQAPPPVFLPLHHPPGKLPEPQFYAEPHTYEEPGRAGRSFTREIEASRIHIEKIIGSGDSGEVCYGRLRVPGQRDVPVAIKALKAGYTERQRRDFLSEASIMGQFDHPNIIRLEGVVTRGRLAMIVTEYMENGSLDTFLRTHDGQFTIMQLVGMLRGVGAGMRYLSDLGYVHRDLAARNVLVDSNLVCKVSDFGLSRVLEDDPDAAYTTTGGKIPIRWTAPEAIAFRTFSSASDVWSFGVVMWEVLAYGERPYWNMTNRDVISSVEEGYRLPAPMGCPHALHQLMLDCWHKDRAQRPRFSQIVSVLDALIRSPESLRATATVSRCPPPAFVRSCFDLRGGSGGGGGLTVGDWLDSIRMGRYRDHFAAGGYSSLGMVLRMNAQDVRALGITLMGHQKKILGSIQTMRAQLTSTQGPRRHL

[17] = molecular target: NLK (human) (UniProt Q9UBE8)
[18] = molecular target: CDKL2 (human) (UniProt Q92772)
[19] = molecular target: CSNK1G3 (human) (UniProt Q9Y6M4)
[20] = molecular target: MINK1 (human) (UniProt Q8N4C8)
[21] = molecular target: TLK2 (human) (UniProt Q86UE8)
[22] = molecular target: FER (human) (UniProt P16591)
[23] = molecular target: IGF1R (human) (UniProt P08069)
[24] = molecular target: CSNK1D (human) (UniProt P48730)
[25] = molecular target: PAK2 (human) (UniProt Q13177)
[26] = molecular target: MERTK (human) (UniProt Q12866)
[27] = molecular target: TESK1 (human) (UniProt Q15569)
[28] = molecular target: MARK2 (human) (UniProt Q7KZI7)
Chain of MARK2 (human) (Q7KZI7 whole entry, looked up): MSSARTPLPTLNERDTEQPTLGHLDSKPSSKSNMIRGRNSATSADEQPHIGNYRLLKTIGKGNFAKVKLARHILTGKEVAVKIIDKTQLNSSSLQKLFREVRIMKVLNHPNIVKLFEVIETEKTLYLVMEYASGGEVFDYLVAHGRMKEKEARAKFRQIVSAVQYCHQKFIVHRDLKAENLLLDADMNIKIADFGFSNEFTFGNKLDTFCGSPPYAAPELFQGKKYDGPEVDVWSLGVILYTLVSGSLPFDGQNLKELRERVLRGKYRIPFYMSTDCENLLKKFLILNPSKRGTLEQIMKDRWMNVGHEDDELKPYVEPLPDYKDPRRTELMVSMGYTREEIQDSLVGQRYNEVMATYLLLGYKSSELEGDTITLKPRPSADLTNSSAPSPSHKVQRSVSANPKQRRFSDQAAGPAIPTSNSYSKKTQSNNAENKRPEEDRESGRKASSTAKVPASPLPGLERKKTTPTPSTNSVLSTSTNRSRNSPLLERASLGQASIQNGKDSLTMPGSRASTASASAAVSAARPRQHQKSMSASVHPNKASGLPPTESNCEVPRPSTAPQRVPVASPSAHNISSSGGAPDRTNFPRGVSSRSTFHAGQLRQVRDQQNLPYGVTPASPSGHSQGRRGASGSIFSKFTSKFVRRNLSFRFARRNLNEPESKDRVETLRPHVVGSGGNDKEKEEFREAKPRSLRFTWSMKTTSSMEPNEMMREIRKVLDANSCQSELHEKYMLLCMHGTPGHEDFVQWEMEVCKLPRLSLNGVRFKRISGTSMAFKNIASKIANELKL

[29] = molecular target: CDK14 (human) (UniProt O94921)
[30] = molecular target: PIK3CB (human) (UniProt P42338)
[31] = molecular target: ACVR2B (human) (UniProt Q13705)
Chain of ACVR2B (human) (Q13705 whole entry, looked up): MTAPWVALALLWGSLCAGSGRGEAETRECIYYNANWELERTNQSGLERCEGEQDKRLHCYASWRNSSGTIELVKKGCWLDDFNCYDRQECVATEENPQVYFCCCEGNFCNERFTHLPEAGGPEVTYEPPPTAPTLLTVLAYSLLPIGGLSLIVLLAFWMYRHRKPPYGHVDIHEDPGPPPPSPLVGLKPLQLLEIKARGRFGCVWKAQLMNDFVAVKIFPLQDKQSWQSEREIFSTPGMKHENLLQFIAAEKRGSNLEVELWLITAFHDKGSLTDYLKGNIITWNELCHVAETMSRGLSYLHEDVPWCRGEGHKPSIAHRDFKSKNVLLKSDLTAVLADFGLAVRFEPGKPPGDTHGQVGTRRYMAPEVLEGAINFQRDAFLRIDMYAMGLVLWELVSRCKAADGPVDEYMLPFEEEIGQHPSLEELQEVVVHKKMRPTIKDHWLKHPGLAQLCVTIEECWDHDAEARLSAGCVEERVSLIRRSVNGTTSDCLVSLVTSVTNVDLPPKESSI

[32] = molecular target: PIK3C2B (human) (UniProt O00750)
[33] = molecular target: STK33 (human) (UniProt Q9BYT3)
Chain of STK33 (human) (Q9BYT3 whole entry, looked up): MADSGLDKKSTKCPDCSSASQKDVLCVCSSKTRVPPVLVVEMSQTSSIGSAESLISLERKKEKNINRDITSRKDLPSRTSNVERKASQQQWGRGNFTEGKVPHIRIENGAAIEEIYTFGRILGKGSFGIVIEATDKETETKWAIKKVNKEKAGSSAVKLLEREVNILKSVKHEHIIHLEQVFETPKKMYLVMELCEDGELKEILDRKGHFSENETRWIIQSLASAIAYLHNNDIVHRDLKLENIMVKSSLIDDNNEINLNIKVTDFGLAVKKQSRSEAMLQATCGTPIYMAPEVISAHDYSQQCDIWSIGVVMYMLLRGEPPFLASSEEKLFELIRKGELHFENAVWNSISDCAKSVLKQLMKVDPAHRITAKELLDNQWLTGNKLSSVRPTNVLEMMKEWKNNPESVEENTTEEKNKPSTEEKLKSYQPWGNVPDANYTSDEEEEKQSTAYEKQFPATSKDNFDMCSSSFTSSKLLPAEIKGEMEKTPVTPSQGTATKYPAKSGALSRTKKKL

[34] = molecular target: RET (human) (UniProt P07949)
[35] = molecular target: RIOK2 (human) (UniProt Q9BVS4)

Chain of ERBB4 (human) (Q15303 whole entry, looked up): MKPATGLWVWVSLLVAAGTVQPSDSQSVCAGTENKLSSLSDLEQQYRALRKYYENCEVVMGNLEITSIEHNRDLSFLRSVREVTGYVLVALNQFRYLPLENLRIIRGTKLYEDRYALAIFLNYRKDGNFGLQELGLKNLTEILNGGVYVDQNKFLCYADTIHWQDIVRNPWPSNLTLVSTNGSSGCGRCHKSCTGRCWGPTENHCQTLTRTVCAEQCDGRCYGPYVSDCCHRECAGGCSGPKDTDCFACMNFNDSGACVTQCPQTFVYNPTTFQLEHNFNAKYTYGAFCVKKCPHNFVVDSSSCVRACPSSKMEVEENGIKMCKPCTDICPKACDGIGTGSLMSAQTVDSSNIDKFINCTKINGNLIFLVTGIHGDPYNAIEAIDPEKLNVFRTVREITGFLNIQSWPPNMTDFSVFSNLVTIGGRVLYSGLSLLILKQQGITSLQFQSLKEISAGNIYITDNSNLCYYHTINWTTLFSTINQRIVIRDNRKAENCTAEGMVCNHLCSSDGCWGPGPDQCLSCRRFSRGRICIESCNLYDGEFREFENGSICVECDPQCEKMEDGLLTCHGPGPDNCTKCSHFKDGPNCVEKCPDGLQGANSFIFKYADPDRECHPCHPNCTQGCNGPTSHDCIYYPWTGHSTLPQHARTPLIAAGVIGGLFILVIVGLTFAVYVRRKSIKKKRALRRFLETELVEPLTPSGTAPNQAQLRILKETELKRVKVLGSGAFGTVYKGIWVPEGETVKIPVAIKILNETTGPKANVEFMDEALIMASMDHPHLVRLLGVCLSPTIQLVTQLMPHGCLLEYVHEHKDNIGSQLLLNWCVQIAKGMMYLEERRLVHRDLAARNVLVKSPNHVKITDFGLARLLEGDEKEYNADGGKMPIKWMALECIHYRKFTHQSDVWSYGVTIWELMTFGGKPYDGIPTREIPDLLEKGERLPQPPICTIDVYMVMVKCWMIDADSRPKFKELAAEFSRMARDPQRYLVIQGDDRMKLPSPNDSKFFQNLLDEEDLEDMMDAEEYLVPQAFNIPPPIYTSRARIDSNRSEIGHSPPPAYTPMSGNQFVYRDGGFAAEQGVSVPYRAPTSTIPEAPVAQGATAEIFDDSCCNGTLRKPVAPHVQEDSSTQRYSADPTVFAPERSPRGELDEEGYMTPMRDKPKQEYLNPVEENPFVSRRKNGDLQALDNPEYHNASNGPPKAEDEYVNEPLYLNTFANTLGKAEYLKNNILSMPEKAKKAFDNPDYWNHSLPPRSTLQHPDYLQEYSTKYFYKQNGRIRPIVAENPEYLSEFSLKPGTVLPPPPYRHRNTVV

`C=CC(=O)Nc1ccc(CN(C(=O)Nc2c(Cl)c(OC)cc(OC)c2Cl)c2cc(Nc3ccc(N4CCN(C)CC4)cc3)ncn2)cc1` gave a kinase still bound, per cent of control [1] of 100%, a kinase still bound, per cent of control [2] of 10% and a kinase still bound, per cent of control [3] of 18%. It also gave a kinase still bound, per cent of control [4] of 100%, a kinase still bound, per cent of control [5] of 2.2% and a kinase still bound, per cent of control [6] of 5%. For the same molecule, the kinase still bound, per cent of control [7] was 4.5%, the kinase still bound, per cent of control [8] was 100% and the kinase still bound, per cent of control [9] was 100%. The kinase still bound, per cent of control [10] was 100%, the kinase still bound, per cent of control [11] was 16% and the kinase still bound, per cent of control [12] was 100%. The kinase still bound, per cent of control [13] was 100%, the kinase still bound, per cent of control [14] was 100% and the kinase still bound, per cent of control [15] was 100%. The kinase still bound, per cent of control [16] was 100%, the kinase still bound, per cent of control [17] was 100% and the kinase still bound, per cent of control [18] was 0.35%. For the same molecule, the kinase still bound, per cent of control [19] was 100%, the kinase still bound, per cent of control [20] was 100% and the kinase still bound, per cent of control [21] was 100%. For the same molecule, the kinase still bound, per cent of control [22] was 100%, the kinase still bound, per cent of control [23] was 16% and the kinase still bound, per cent of control [24] was 100%. The kinase still bound, per cent of control [25] was 100%, the kinase still bound, per cent of control [26] was 100% and the kinase still bound, per cent of control [27] was 100%. For the same molecule, the kinase still bound, per cent of control [28] was 100%, the kinase still bound, per cent of control [29] was 100% and the kinase still bound, per cent of control [30] was 100%. The kinase still bound, per cent of control [31] was 100%, the kinase still bound, per cent of control [32] was 100% and the kinase still bound, per cent of control [33] was 31%. The kinase still bound, per cent of control [34] was 0.6% and the kinase still bound, per cent of control [35] was 100%.
`CCN(CC)CCCCNc1ncc2cc(-c3cc(OC)cc(OC)c3)c(NC(=O)NC(C)(C)C)nc2n1` showed a kinase still bound, per cent of control [1] of 100%, a kinase still bound, per cent of control [2] of 100% and a kinase still bound, per cent of control [3] of 100%. For the same molecule, the kinase still bound, per cent of control [4] was 100%, the kinase still bound, per cent of control [5] was 100% and the kinase still bound, per cent of control [6] was 100%. The kinase still bound, per cent of control [7] was 0.05%, the kinase still bound, per cent of control [8] was 100% and the kinase still bound, per cent of control [9] was 100%. The kinase still bound, per cent of control [10] was 100%, the kinase still bound, per cent of control [11] was 100% and the kinase still bound, per cent of control [12] was 100%. It also gave a kinase still bound, per cent of control [13] of 100%, a kinase still bound, per cent of control [14] of 100% and a kinase still bound, per cent of control [15] of 100%. For the same molecule, the kinase still bound, per cent of control [16] was 100%, the kinase still bound, per cent of control [17] was 100% and the kinase still bound, per cent of control [19] was 100%. The kinase still bound, per cent of control [21] was 100%, the kinase still bound, per cent of control [22] was 100% and the kinase still bound, per cent of control [23] was 100%. The kinase still bound, per cent of control [24] was 100%, the kinase still bound, per cent of control [25] was 100% and the kinase still bound, per cent of control [26] was 100%. For the same molecule, the kinase still bound, per cent of control [27] was 100%, the kinase still bound, per cent of control [28] was 100% and the kinase still bound, per cent of control [29] was 100%. For the same molecule, the kinase still bound, per cent of control [31] was 100%, the kinase still bound, per cent of control [33] was 100% and the kinase still bound, per cent of control [34] was 26%.
Work on `Cc1n[nH]c2ccc(-c3cncc(OC[C@@H](N)Cc4c[nH]c5ccccc45)c3)cc12` yielded a kinase still bound, per cent of control [1] of 1.3%, a kinase still bound, per cent of control [2] of 100% and a kinase still bound, per cent of control [3] of 100%. For the same molecule, the kinase still bound, per cent of control [4] was 14%, the kinase still bound, per cent of control [5] was 100% and the kinase still bound, per cent of control [6] was 100%. For the same molecule, the kinase still bound, per cent of control [7] was 100%, the kinase still bound, per cent of control [8] was 100% and the kinase still bound, per cent of control [9] was 0.3%. For the same molecule, the kinase still bound, per cent of control [10] was 100%, the kinase still bound, per cent of control [11] was 100% and the kinase still bound, per cent of control [12] was 3.7%. It also gave a kinase still bound, per cent of control [13] of 100%, a kinase still bound, per cent of control [14] of 0.05% and a kinase still bound, per cent of control [15] of 6.6%. For the same molecule, the kinase still bound, per cent of control [16] was 100%, the kinase still bound, per cent of control [17] was 100% and the kinase still bound, per cent of control [18] was 5.2%. It also gave a kinase still bound, per cent of control [19] of 0.15%, a kinase still bound, per cent of control [20] of 6.2% and a kinase still bound, per cent of control [21] of 100%. For the same molecule, the kinase still bound, per cent of control [22] was 100%, the kinase still bound, per cent of control [23] was 100% and the kinase still bound, per cent of control [25] was 4.6%. It also gave a kinase still bound, per cent of control [26] of 33%, a kinase still bound, per cent of control [27] of 100% and a kinase still bound, per cent of control [28] of 13%. It also gave a kinase still bound, per cent of control [29] of 9.8%, a kinase still bound, per cent of control [30] of 100% and a kinase still bound, per cent of control [31] of 100%. It also gave a kinase still bound, per cent of control [32] of 100%, a kinase still bound, per cent of control [33] of 2.6% and a kinase still bound, per cent of control [34] of 100%. For the same molecule, the kinase still bound, per cent of control [35] was 6.2%.
